# Values of other authors as cited in patent publication US20080044462A1 (Collegium Pharmaceutical, Inc. Delaware, priority 2006, published 2008).
# Settings: background statement, no test described
compound,measurement,value
"CC(NC(C)(C)C)C(=O)c1cccc(Cl)c1 (stereo not shown) [free base form of bupropion, 1-(3-chlorophenyl)-2[(1,1,dimethylethyl)amino]-1-propanone]",stability in the presence of oxygen,highly unstable
